PMC6801585, “Improved In Vivo Anti-Tumor and Anti-Metastatic Effect of GnRH-III-Daunorubicin Analogs on Colorectal and Breast Carcinoma Bearing Mice” (International Journal of Molecular Sciences, 2019)
“And” between values parts separate entries of the source, which are not always exact repeats. Equal values may be shown once.

What was measured:
4T1 = test: In vitro anti-proliferative activity (MTT assay); type: cell-based; conditions: Mus musculus, 4T1 (mice breast), 24 h treatment + 48 h culture, average ± SD
Description: (§1) In experimental procedures following cell lines were used, MDA-MB-231 and MCF-7 (human breast cancer), 4T1 (mice breast cancer), DU145 and PC-3 (human prostate cancer), A2780, OVCAR-3 and OVCAR-8 (human ovarian cancer), HepG2 (human liver cancer), A2058, WM983b, HT168-M1/9 and M24 (human melanoma), B16 (mice melanoma), H1975, H1650 and A549 (human lung cancer), HT-29 (human colorectal adenocarcinoma), C26 (mice colon cancer) and PANC-1 (pancreatic cancer) were cultured in RPMI 1640 Medium with glutamine (Roswell Park Memorial Institute Medium, Lonza, Basel, Switzerland). Moreover, U87MG (human malignant glioma) and MRC-5 (normal human fibroblast) were cultured in Dulbecco’s Modified Eagle’s Medium (DMEM, Lonza) and PE/CA-PJ15 and PE/CA-PJ41 (head and neck cancer) were cultured in Iscove’s Modified Dulbecco’s Medium (IMEM, Sigma Aldrich, St. Louis, MO, USA). Apart from the cell culture medium for OVCAR-3 cells, all media were supplemented with 10% heat-inactivated FBS (Fetal Bovine Serum, Euroclone, Milan, Italy) and 1% Penicillin/Streptomycin (Sigma Aldrich), while OVCAR-3 cells were cultured in 20% FBS containing RPMI medium. The cell lines were mainly obtained from ATCC, except for PE/CA-PJ15, PE/CA-PJ41 (ECACC), A2058 (kindly provided by L.A. Liotta, NCI, Bethesda, MD, USA), HT-168-M1/9 (derived from A2058), M24 (kind gift from B.M. Mueller, Scripps Research Institute, La Jolla, CA, USA) and WM983b (kindly provided by Meenhard Herlyn, Wistar Institute, Philadelphia, PA, USA). Cells were cultured in sterile T25 or T75 flasks with ventilation cap (Sarstedt, Nümbrecht, Germany) at 37 °C in a humidified atmosphere with 5% CO2.
(§2) For the evaluation of the in vitro anti-proliferative activity of the GnRH-III conjugates and free Dau, the cell viability was determined by MTT assay (3-(4,5-dimethylthiazol-2-yl)-2,5-diphenyl-tetrazolium bromide) that was obtained from Sigma Aldrich. After standard harvesting of the cells by trypsin-EDTA (Lonza), 4 × 10^3 till 10 × 10^3 cells per well depending on cell line, were seeded in serum containing growth medium to 96-well plates (Sarstedt) and incubated. After 24 h, the growth medium was removed and cells were treated with various concentrations of conjugates 1 and 2 (32 nM–100 µM) or free Dau (0.1 nM–10 µM), dissolved in serum free medium and incubated for 24 h under standard conditions. The control wells were treated with serum free medium. After 24 h of treatment, the cells were washed twice with serum free medium and then cultured in serum containing medium for an additional 48 h. Afterward, the MTT assay was performed, in order to determine cell viability, by adding 20 µL of MTT solution (5 mg/mL in PBS) to each well and after 2 h of incubation at 37 °C, the supernatant was removed. The formazan crystals were dissolved in 100 µL of a 1:1 solution of DMSO (Sigma Aldrich):EtOH (Molar Chemicals Kft., Halásztelek, Hungary) and the absorbance was measured after 15 min. at λ = 570 nm by using a microplate reader (Bio-Rad, model 550, Hercules, CA, USA). The IC50 values of the conjugates and free drug were calculated while using GraphPad Prism 6 (GraphPad Software, San Diego, CA, USA). The experiments were done in triplicate and each experiment was repeated twice.

A2058 = test: In vitro anti-proliferative activity (MTT assay); type: cell-based; conditions: Homo sapiens, A2058 (melanoma), 24 h treatment + 48 h culture, average ± SD
Description: as §1, §2

A2780 = test: In vitro anti-proliferative activity (MTT assay); type: cell-based; conditions: Homo sapiens, A2780 (ovarian), 24 h treatment + 48 h culture, average ± SD
Description: as §1, §2

A549 = test: In vitro anti-proliferative activity (MTT assay); type: cell-based; conditions: Homo sapiens, A549 (lung), 24 h treatment + 48 h culture, average ± SD
Description: as §1, §2

B16 = test: In vitro anti-proliferative activity (MTT assay); type: cell-based; conditions: Mus musculus, B16 (mice melanoma), 24 h treatment + 48 h culture, average ± SD
Description: as §1, §2

C26 = test: In vitro anti-proliferative activity (MTT assay); type: cell-based; conditions: Mus musculus, C26 (mice colon), 24 h treatment + 48 h culture, average ± SD
Description: as §1, §2

DU145 = test: In vitro anti-proliferative activity (MTT assay); type: cell-based; conditions: Homo sapiens, DU-145, DU145 (prostate), 24 h treatment + 48 h culture, average ± SD
Description: as §1, §2

H1650 = test: In vitro anti-proliferative activity (MTT assay); type: cell-based; conditions: Homo sapiens, NCI-H1650, H1650 (lung), 24 h treatment + 48 h culture, average ± SD
Description: as §1, §2

H1975 = test: In vitro anti-proliferative activity (MTT assay); type: cell-based; conditions: Homo sapiens, NCI-H1975, H1975 (lung), 24 h treatment + 48 h culture, average ± SD
Description: as §1, §2

HT-29 = test: In vitro anti-proliferative activity (MTT assay); type: cell-based; conditions: Homo sapiens, HT-29 (colon), 24 h treatment + 48 h culture, average ± SD
Description: as §1, §2

HT168-M1/9 = test: In vitro anti-proliferative activity (MTT assay); type: cell-based; conditions: Homo sapiens, HT168-M1/9 (melanoma), 24 h treatment + 48 h culture, average ± SD
Description: as §1, §2

HepG2 = test: In vitro anti-proliferative activity (MTT assay); type: cell-based; conditions: Homo sapiens, HepG2 (liver), 24 h treatment + 48 h culture, average ± SD
Description: as §1, §2

M24 = test: In vitro anti-proliferative activity (MTT assay); type: cell-based; conditions: Homo sapiens, M24 (melanoma), 24 h treatment + 48 h culture, average ± SD
Description: as §1, §2

MCF-7 = test: In vitro anti-proliferative activity (MTT assay); type: cell-based; conditions: Homo sapiens, MCF7, MCF-7 (breast), 24 h treatment + 48 h culture, average ± SD
Description: as §1, §2

MDA-MB-231 = test: In vitro anti-proliferative activity (MTT assay); type: cell-based; conditions: Homo sapiens, MDA-MB-231 (breast), 24 h treatment + 48 h culture, average ± SD
Description: as §1, §2

MRC-5 = test: In vitro anti-proliferative activity (MTT assay); type: cell-based; conditions: Homo sapiens, MRC5, MRC-5 (normal fibroblast), 24 h treatment + 48 h culture, average ± SD
Description: as §1, §2

OVCAR-3 = test: In vitro anti-proliferative activity (MTT assay); type: cell-based; conditions: Homo sapiens, OVCAR-3 (ovarian), 24 h treatment + 48 h culture, average ± SD
Description: as §1, §2

OVCAR-8 = test: In vitro anti-proliferative activity (MTT assay); type: cell-based; conditions: Homo sapiens, OVCAR-8 (ovarian), 24 h treatment + 48 h culture, average ± SD
Description: as §1, §2

PANC-1 = test: In vitro anti-proliferative activity (MTT assay); type: cell-based; conditions: Homo sapiens, PANC-1 (pancreas), 24 h treatment + 48 h culture, average ± SD
Description: as §1, §2

PC-3 = test: In vitro anti-proliferative activity (MTT assay); type: cell-based; conditions: Homo sapiens, PC-3 (prostate), 24 h treatment + 48 h culture, average ± SD
Description: as §1, §2

PE/CA-PJ15 = test: In vitro anti-proliferative activity (MTT assay); type: cell-based; conditions: PE/CA-PJ15 (head and neck), 24 h treatment + 48 h culture, average ± SD
Description: as §1, §2

PE/CA-PJ41 = test: In vitro anti-proliferative activity (MTT assay); type: cell-based; conditions: PE/CA-PJ41 (head and neck), 24 h treatment + 48 h culture, average ± SD
Description: as §1, §2

U87MG = test: In vitro anti-proliferative activity (MTT assay); type: cell-based; conditions: Homo sapiens, U-87 MG, U87MG (glioblastoma), 24 h treatment + 48 h culture, average ± SD
Description: as §1, §2

WM983b = test: In vitro anti-proliferative activity (MTT assay); type: cell-based; conditions: Homo sapiens, WM983b (melanoma), 24 h treatment + 48 h culture, average ± SD
Description: as §1, §2

[1] = Chronic toxicity study on healthy mice; type: in vivo; conditions: healthy BALB/c female mice; i.p.; conjugates 15 mg/kg Dau content x5 (days 1,3,6,8,10); free Dau 1 mg/kg x2 (days 1,8); 14 days; 3 mice per group
Description: Adult female inbred BALB/c mice from a specified pathogen free (SPF) breeding of the National Institute of Oncology (Budapest, Hungary), were used in acute and chronic toxicity studies and in orthotopic 4T1 mice breast tumor model experiment. The mice were kept in a sterile environment in Makrolon® cages at 22–24 °C (40–50% humidity), with a lighting regulation of 12/12 h light/dark. The animals had free access to tap water and were fed with a sterilized standard diet (VRF1, autoclavable, Akronom Kft., Budapest, Hungary) ad libitum.
In order to determine the toxicity of the conjugates, in vivo acute and chronic toxicity studies were performed on healthy animals. In acute toxicity study, adult BALB/c female mice (20–23 g) were treated by a single intraperitoneal (i.p.) injection of conjugate 2, whereby different doses (3.125, 6.25, 12.5, 25 and 50 mg/kg Dau content) were administrated to each groups (three mice per group). In chronic toxicity studies, adult female BALB/c mice (23–26 g) were treated either with GnRH-III conjugates by i.p. administration with a dose of 15 mg/kg Dau content on day 1, 3, 6, 8 and 10, or with free Dau (1 mg/kg) on day 1 and 8. In case of the control group, sterile water was administered. Each group consisted of three mice. The toxicity was evaluated on the basis of life span, behavior and appearance of the mice, as well as the body weight. […]

[2] = test system: 4T1 mice breast carcinoma; test: Orthotopic 4T1 mice breast tumor model; type: in vivo, BALB/c female mice
Description: Adult BALB/c female mice (20–25 g) were used in this experiment and kept under the same conditions, as described above. 4T1 mice breast carcinoma cells, maintained as described above, were orthotopically injected into the lower quarter of the right mammary fat pad line of mice, whereby 1 × 10^6 cells were used per animal, suspended in 50 µL M199 medium (Sigma Aldrich). The treatment started seven days after cells inoculation, when the average tumor volume was 38 mm^3, by i.p. administration of the conjugates or free Dau. Four groups with seven animals per group were established and treated with certain doses and schedules. The mice in the control group were treated with sterile water, while mice in free Dau group were treated with a dose of 1 mg/kg, once per week, on days 7, 14 and 21 after cells inoculation. […] Animal weight and tumor volumes were measured initially when the treatment started and at periodic intervals according to the treatment schedule. A digital caliper was used to measure the longest (a) and the shortest diameter (b) of a given tumor. The tumor volume was calculated while using the formula V = ab^2 × π/6, whereby a and b represent the measured parameters (length and width). The termination of the experiment was initiated 28 days after cell inoculation, respectively 22 days after treatment start, since the average volume of the tumors in the control group reached 1800 mm^3. The mice from all groups were sacrificed by cervical dislocation. The anti-tumor effects and the liver toxicity of the conjugates and free Dau were evaluated based on the tumor volume and the liver weight/body weight ratio in each group. Moreover, the anti-proliferative and anti-metastatic activity of the conjugates and free Dau was evaluated in primary tumor and in metastases on the peripheral organs.
The routinely formalin-fixed tumors were dehydrated in a graded series of ethanol, infiltrated with xylene and embedded into paraffin at a temperature not exceeding 60 °C. Two micron thick sections were mounted on Superfrost slides (Thermo Shandon, Runcorn, UK) and then manually deparaffinized. To block endogenous peroxidase activity, slides were treated for 20 min. at r.t. with 3% H2O2 in methanol. The slides were immersed in 6% citrate buffer (pH = 6) and exposed to 98 °C water bath for 40 min. […] After washing, secondary antibody Biotinylated Link (Dako) was applied for 10 min. at r.t. For visualization, supersensitive one step polymer HRP (Biogenex, Fremont, CA, USA) was used with 3-amino-9-ethylcarbazole (AEC) as chromogen. Staining without the primary antibody served as the negative control.
Liver, spleen, lung and kidneys were harvested and fixed in formalin. All of the visible macro-metastatic lesions of the peripheral organs of seven animals from the control and treated groups on a stereo microscope Kruss MSZ5600 (Kruss Optronic, Hamburg, Germany) under 7–45-fold magnification were counted. The percentages of macro-metastatic lesions in the treated groups compared to the control group was calculated.
Proliferation marker stained samples were evaluated on light microscope Olympus BH-2 microscope (Olympus, Tokyo, Japan). […] The proliferation index was calculated as percentage of KI-67 positive cells from all cells in the field of view.

[3] = test system: MDA-MB-231 human breast carcinoma; test: Orthotopic MDA-MB-231 human breast tumor model; type: in vivo, SCID female mice
Description: Adult SCID female mice (22–28 g) were used in this experiment and kept under the same conditions, as described above. […] The treatments started 21 days after cells inoculation, when average tumor volume was 40 mm^3. Free Dau and conjugates were administrated by i.p. injection. Four groups with seven animals per group were established and treated with certain doses and schedules. The mice in the control group were treated with sterile water, while the mice in the free Dau group were treated with a dose of 1 mg/kg, once per week, on day 21, 28, 35 and 42 after cell inoculation. […] The last treatment was performed on day 42 after cell inoculation, whereby a dose of 7.5 mg/kg Dau content was applied. The animal weights and tumor volumes were measured when the treatment was initiated and at periodic intervals according to the treatment schedule. The tumor volume was calculated in the same manner as described for mice breast carcinoma. […] The mice from all groups were sacrificed by cervical dislocation and primary tumors and livers were harvested and weighed, while number of animals with metastases were counted. The anti-tumor effects of the conjugates were evaluated measuring the tumor volume and the tumor weights, while the toxicity effects of conjugates were evaluated measuring liver weights and calculating the liver weight/body weight ratio.

[4] = test system: HT-29 human colon carcinoma; test: Orthotopic HT-29 human colon tumor model; type: in vivo, SCID female mice
Description: Immunodeficient, 6–8 weeks old SCID female mice (21–27 g) were used in this experiment. HT-29 colon carcinoma cells were subcutaneously injected into one side of the intrascapular region, whereby 2 × 10^6 cells were used per animal, suspended in 200 µL of M199 medium, in order to establish the xenografts with primary tumor. After two weeks, the mice with palpable tumors were sacrificed by cervical dislocation, disinfected with iodine and the subcutaneous tumor was aseptically dissected out.
The abdomen of mice was disinfected with iodine and alcohol, a small midline incision (0.5 cm) was then made and the colorectal part of the intestine was exteriorized. Serosa of the site where the tumor pieces should be implanted were removed. Tumor tissue fragments of HT-29 human colon tumor were implanted on the top of the animal intestine, whereby an 8/0 surgical (polypropylene) suture was used to suture it on the wall of the intestine. The intestine was returned to the abdominal cavity and the abdominal wall was closed with 4/0 surgical (polyglycolic acid) sutures. The wound was disinfected with iodine and alcohol again and the animals were kept in a sterile environment.
The treatments started seven days after tumor transplantation by i.p. administration of the free Dau and conjugates which were dissolved in sterile water for injection. Six mice per group were used. One group of mice was treated with free Dau at a dose of 1 mg/kg body weight on day 7, 13 and 20 after tumor transplantation. […] The control group was treated with sterile water. The experiment was terminated on day 30 after tumor transplantation (day 24 of treatment). […] The mice from all groups were sacrificed by cervical dislocation. Their tumors and livers were harvested and weighed.

[5] = vs control, 1 and 2 10 mg/kg Dau content x6, free Dau 1 mg/kg x3, day 28, 7 animals
[6] = SCID mice, i.p., 1 and 2 15 mg/kg Dau content x6 + 7.5 mg/kg x1, free Dau 1 mg/kg x4, day 45, 7 per group
[7] = SCID mice, i.p., 1 and 2 10 mg/kg Dau content x7, end day 30, free Dau 1 mg/kg x3, end day 23, 6 per group

COc1cccc2c1C(=O)c1c(O)c3c(c(O)c1C2=O)C[C@@](O)(C(C)=O)C[C@@H]3O[C@H]1C[C@H](N)[C@H](O)[C@H](C)O1 [Dau, daunorubicin]
IC50 (4T1): 56 ± 14.7 nM | IC50 (A2058): 35.1 ± 14.9 nM | IC50 (A2780): 10.4 ± 1.6 nM | IC50 (A549): 69.3 ± 23.5 nM | IC50 (B16): 26 ± 8 nM | IC50 (C26): 118 ± 8.6 nM | IC50 (DU145): 16.3 ± 4.6 nM | IC50 (H1650): 50.3 ± 13.4 nM | IC50 (H1975): 20.9 ± 2.7 nM | IC50 (HT-29): 202.9 ± 1 nM | IC50 (HT168-M1/9): 27.5 ± 9.1 nM | IC50 (HepG2): 22.9 ± 1.4 nM | IC50 (M24): 119 ± 25 nM | IC50 (MCF-7): 63.9 ± 21 nM | IC50 (MDA-MB-231): 54.6 ± 7.4 nM | IC50 (MRC-5): 288 ± 35.1 nM | IC50 (OVCAR-3): 404 ± 9.4 nM | IC50 (OVCAR-8): 186 ± 99.8 nM | IC50 (PANC-1): 526 ± 24.7 nM | IC50 (PC-3): 32.7 ± 4.7 nM | IC50 (PE/CA-PJ15): 50.5 ± 38.7 nM | IC50 (PE/CA-PJ41): 45.6 ± 33.5 nM | IC50 (U87MG): 126 ± 53.7 nM | IC50 (WM983b): 49.8 ± 22.9 nM | Chronic toxicity: body weight, general looking and behavior [1]: could not observe a significant change in body weight | Decrease of liver/body weight ratio compared to control ([2]; 1 and 2 10 mg/kg Dau content x6, free Dau 1 mg/kg x3, day 28): 9.8% | Animal body weight at the end of experiment compared to the start ([2]; BALB/c mice, i.p., 1 and 2 10 mg/kg Dau content x6, free Dau 1 mg/kg x3, day 28, 7 per group): slightly decreased | Inhibition of proliferation index of lung metastases ([2]; KI-67, vs control, 1 and 2 10 mg/kg Dau content x6, free Dau 1 mg/kg x3): 27.8% and 28% | Decrease of proliferation index in primary tumor compared to control ([2]; KI-67 positive cells, 400x, 1 and 2 10 mg/kg Dau content x6, free Dau 1 mg/kg x3, day 28): 19% | Inhibition of number of micro-metastases in the lung compared to control ([2]; KI-67 stained, per field of view 100x, 1 and 2 10 mg/kg Dau content x6, free Dau 1 mg/kg x3): 33.7% and 34% | Decrease of spleen weight compared to control ([2]; day 28, 7 per group, Figure S2): 27.2% | Decrease of number of macro-metastases in lung [2, 5]: 55.4% | Decrease of number of macro-metastases in spleen [2, 5]: 64.3% | Decrease of liver/body weight ratio compared to control ([3]; 1 and 2 15 mg/kg Dau content x6 + 7.5 mg/kg x1, free Dau 1 mg/kg x4, day 45): 16.8% | Decrease of body weight at the end of experiment compared to the beginning [3, 6]: 20% | Inhibition of tumor volume compared to control [3, 6]: 46.3% and 46% | Inhibition of tumor weight [3, 6]: 40.1% | Number of mice with metastases close to the primary tumor ([3]; end of experiment day 45, control 5/5): four out of seven and 4/7 and 4/7 ^2 | Decrease of liver/body weight ratio compared to control ([4]; 1 and 2 10 mg/kg Dau content x7, day 30, free Dau 1 mg/kg x3, day 23): 29.4% | Animal body weight at the end of experiment compared to the start [4, 7]: significantly decreased | Reduction of tumor weight compared to control [4, 7]: 84.3% and 84%
